We go through eleven compounds from US10183011B2, “Anti-depression compounds” (Board of Regents of the University of Texas System, priority 2009, dated 2019).

In series [1] the test system is cultured primary cortical neurons. Kind of series: Mitochondrial membrane potential (TMRM) after A23187 in cultured primary cortical neurons. It is filed as cell-based. The note with it: rat E14 cortical neurons.
Excerpt: (§1) FIG. 23: Example 45 Compound Preserves Mitochondrial Membrane Potential in Cultured Primary Cortical Neurons. Cortical neurons cultures from rats on embryonic day 14 were loaded with tetramethylrhodamine methyl ester (TMRM) dye after 6 days of maturation. […] The remaining panels are from cells that were exposed to the calcium ionophore A23187 at time zero. With vehicle-alone, cortical neuron mitochondrial membrane potential was rapidly lost after exposure to the ionophore. […] Results shown are representative of 10 fields analyzed in each of 2 experimental runs for all conditions.
as §1, with “It was also examined whether” for “FIG. 23:”, “preserves mitochondrial membrane potential” for “Preserves Mitochondrial Membrane Potential”, “cultured primary cortical neurons (FIG. 23).” for “Cultured Primary Cortical Neurons.”

The next series has as its system U2OS cells. Kind of series: Calcium ionophore A23187-induced loss of mitochondrial membrane potential (TMRM dye release). It is filed as cell-based. Conditions: TMRM dye. The source says:
FIG. 22A, FIG. 22B, FIG. 22C, FIG. 22D, FIG. 22E and FIG. 22F: Example 45 Compound Preserves Mitochondrial Membrane Potential in Parallel to Proneurogenic Activity U2OS cells were loaded with tetramethylrhodamine methyl ester (TMRM) dye and then exposed to the calcium ionophore A23187 either in the presence or absence of test compounds. Example 45 Compound (FIG. 22A) preserved mitochondrial membrane potential following exposure to the calcium ionophore A23187 in a dose-dependent manner. The protective effect of P7C3 was enantiomeric specific. […] Each compound was evaluated in triplicate with similar results.
Extensive evidence pioneered by the laboratory of Xiaodong Wang has shown that an intrinsic pathway leading to programmed cell death emanates from mitochondria (Liu et al., Cell 1996, 86, 147-157; Yang et al., Science 1997, 275, 1129-1132). With the help of the Wang lab, assays were established to test whether Example 45 Compound might protect mitochondria from calcium-induced dissolution (Distelmaier et al., Cytometry A 2008, 73, 129-138). Tetramethylrhodamine methyl ester (TMRM) is a cell-permeant, cationic red-orange fluorescent dye that is readily sequestered by active mitochondria. When loaded with TMRM dye, vehicle-only treated cells released the dye within 15 minutes of exposure to the calcium ionophore A23187. By contrast, dye release was prevented in cells exposed to as little as […] of Example 45 Compound (FIG. 18A).
Since P7C3 ameliorates the death of newborn neurons in the dentate gyrus in living mice, it is possible that its function might relate to mitochondrial integrity. Assays were established to test whether P7C3 might protect cultured U2OS cells from calcium-induced mitochondrial dissolution (Distelmaier et al., Cytometry A 2008, 73, 129-138). Tetramethylrhodamine methylester (TMRM) dye is sequestered by active mitochondria, and, when loaded with TMRM, vehicle-treated cells released the dye within 15 rain of exposure to the calcium ionophor A23 187.

Series [2] relates to hippocampal neurogenesis in the DG. Description: Comparison of P7C3 compounds and antidepressant drugs: DG BrdU labeling after i.c.v. infusion. Format: in vivo, mouse. Conditions: 10 μM i.c.v. for 7 days. The source says:
The neuroprotective efficacies of both P7C3 and P7C3-A20 were next compared to currently marketed antidepressant medications, using screening conditions identical to those by which P7C3 was originally discovered. This experiment was based on the antidepressant actions of P7C3 and P7C3-A20 characterized here, and the dependence on hippocampal neurogenesis for behavioral efficacy of some marketed antidepressant medications in mice.
Proneurogenic efficacies in the DG of P7C3 and P7C3A20 were compared to those of vehicle (artificial cerebrospinal fluid) and several marketed antidepressant compounds (Sigma-Aldrich, St. Louis, Mo.) according to established methods. In brief, mice were housed individually in cages without running wheels or any form of environmental enrichment, in order to create an environment predicted to have as low of a baseline level of hippocampal neurogenesis as possible. Compounds (10 μM, i.c.v.) were administered for 7 days via subcutaneously implanted Alzet osmotic minipumps connected to a cannula directed into the left lateral ventricle, with implantation day designated as day 0. Starting on day 1, mice also received daily injections of BrdU (50 mg/kg, i.p.) at 9 am daily, for 6 days. Twenty four hours after the sixth BrdU injection, mice were transcardially perfused as described above.

Series [3] concerns neural precursor cells in the subgranular zone of the dentate gyrus. Kind of series: In vivo pro-neurogenic efficacy/neuroprotection assay: intracerebroventricular infusion, BrdU incorporation in the dentate gyrus. Details: species or system mouse (C57/Bl6). The note with it: direct administration into the brain via Alzet minipumps for one week, 10 μM unless stated. As to the method: Compounds were evaluated for pro-neurogenic efficacy/neuroprotection in our standard in vivo assay at 10 μM concentration in four 12 week old adult male C57/Bl6 mice.
In an effort to identify compounds that might stimulate the birth of new neurons, or protect newborn neurons from cell death, a library of 1,000 compounds was screened using an in vivo assay. In the initial screen, compounds were randomly pooled into groups often and administered intracerebroventricularly at a constant rate over seven days into the left lateral ventricle of living mice via Alzet osmotic mini-pumps. Compounds were administered at a concentration of 10 μM for each molecule, making a total solute concentration of 100 μM. After seven days of infusion at a constant rate of 0.5 μL/hour, a total of 84 μL of volume will have left the pump (0.00084 μMoles) and entered the cerebrospinal fluid. The average volume of a brain from a 12 week old male, C57/B6 mouse in our study is 500 mm^3. […] Under these conditions, at the end of one week of infusion each compound would be present at 1.7 μMolar concentration. Since the actual amount of chemical compound in the brain is likely to be only a fraction of this predicted level, it is reasonable to estimate that compounds were administered at mid to low-nanomolar concentrations.
During compound infusion, animals were intraperitoneally (IP) injected daily with the thymidine analog, bromodeoxyuridine (BrdU), as a means of scoring the birth and survival of proliferating neural precursor cells in the hippocampus. Because both social interaction and voluntary exercise are known to stimulate hippocampal neurogenesis, mice were housed individually without access to running wheels throughout the screening period. Following the week-long period of compound administration, animals were perfused and sacrificed. Dissected brain tissue was fixed, embedded, sectioned, stained with antibodies to BrdU, and evaluated by light microcopy as a means of quantifying neurogenesis and survival of newborn neural precursor cells localized to the subgranular layer of the dentate gyrus on the brain hemisphere contralateral to the side of mini-pump cannulation. Every fifth section throughout the entire rostral-caudal extent of the hippocampus was analyzed, and the total number of BrdU+ cells was normalized against the measured volume of the dentate gyrus. Because both increased proliferation and survival of newborn neurons are important screening parameters, the screen was conducted over seven days in order to cast a wide net to detect molecules that might augment either process. […] Intracranial infusions of either fibroblast growth factor 2 (FGF-2) or artificial cerebral spinal fluid (aCSF) vehicle via the same, week-long protocol were employed as positive and negative controls. There was no difference in the number of BrdU-labeled cells in the dentate gyrus between mice subjected to surgical pump implantation and infusion with vehicle, and mice having had no surgery (FIG. 2). This confirmed the validity of the in vivo approach to assess the ability of intracerebroventricularly infused compounds to enhance hippocampal neurogenesis in the contralateral hemisphere.
In order to further study Example 45 Compound, an in vivo structure activity relationship (SAR) study was conducted using 37 chemical derivatives of the compound for pro-neurogenic activity via direct administration into the brain of adult mice via Alzet minipumps. Compounds were administered for one week at 10 uM into 4 mice per compound, along with daily IP injections of BrdU. Following compound administration, animals were perfused, sacrificed and subjected to sectioning, staining and light microscopy in order to monitor hippocampal neurogenesis localized to the subgranular layer of the dentate gyrus. Roughly 10% of the variant compounds retained pro-neurogenic activity indistinguishable from the parent compound. […]

Series [4] shares this test system. Conditions: dosed intracranially as a 10 micromolar solution; MacMillan et al., J Am. Chem. Soc. 2011; cited from earlier work.
The nature of the next series: Solubility. Format: physicochemical.

Molecules are shown by their SMILES.

As to `Cc1cc(C)n(CC(O)Cn2c3ccc(Br)cc3c3cc(Br)ccc32)n1` (stereo not shown) [Example 33, 1-(3,6-dibromo-9H-carbazol-9-yl)-3-(3,5-dimethyl-1H-pyrazol-1-yl)propan-2-ol], the “preservation of mitochondrial membrane potential” value (shortened to “preservation”) is on record as “less effective in preserving mitochondrial membrane potential at any dose tested” in series [1] and “displayed less protective effect” in the series on U2OS cells. With `NNCCc1ccccc1` [phenelzine], the “increase of DG neurogenesis (BrdU labeling) over vehicle” value (from here on “increase of DG neurogenesis”) in series [2] is given as approximately 52%.

In the case of `Fc1ccc([C@@H]2CCNC[C@H]2COc2ccc3c(c2)OCO3)cc1` [paroxetine], the “increase of DG neurogenesis” value in series [2] is recorded as “did not affect the magnitude of neurogenesis”. For the compound `COc1cccc(NCC(O)Cn2c3ccc(Br)cc3c3cc(Br)ccc32)c1` (single isomer, unassigned) [Example 1b, 1-(3,6-Dibromo-9H-carbazol-9-yl)-3-(3-methoxyphenylamino)-propan-2-ol], the “preservation” value in the series with U2OS cells was “Preservation of mitochondrial membrane potential in this assay was observed”. Still for that read-out and setting: the same measure for `OC(CCNc1ccccc1)Cn1c2ccc(Br)cc2c2cc(Br)ccc21` (stereo not shown) [Example 21, 1-(3,6-dibromo-9H-carbazol-9-yl)-4-(phenylamino)butan-2-ol]: “displayed less protective effect”. In the case of `CN(C)CCCN1c2ccccc2CCc2ccc(Cl)cc21` [clomipramine], the “increase of DG neurogenesis” value in series [2] was approximately 75%. Still for that read-out and setting: the same measure for `CNCCC(Oc1ccc(C(F)(F)F)cc1)c1ccccc1` (stereo not shown) [fluoxetine]: “did not affect the magnitude of neurogenesis”. For the compound `OC(CNc1ccccc1)Cn1c2ccccc2c2ccccc21` (stereo not shown) [Example 76, 1-(9H-carbazol-9-yl)-3-(phenylamino)propan-2-ol], in series [3], the “pro-neurogenic activity in the in vivo hippocampal neurogenesis assay” value is reported as “found to be active”. For the same compound, the “pro-neurogenic activity of a commercial sample in the neurogenesis assay” value in series [4] is on record as “indistinguishable from vehicle”. In “Solubility”, the solubility entry is “low solubility”. For the compound `COc1cccc(NCC(O)Cn2c3ccc(Br)cc3c3cc(Br)ccc32)c1` (single isomer, unassigned; (+)) [(+) enantiomer of Example 62 Compound, 1-(3,6-Dibromo-9H-carbazol-9-yl)-3-(3-methoxyphenylamino)-propan-2-ol], the “pro-neurogenic activity in the in vivo hippocampal neurogenesis assay” value in series [3] was “fully retained”; in series [3] (listed as (+)-enantiomer of Example 62 Compound), “retained potent pro-neurogenic activity”. Further, in the series on U2OS cells, the “preservation” value was “observed only with the (+) enantiomer”. Turning to `CC(NC(C)(C)C)C(=O)c1cccc(Cl)c1` (stereo not shown) [bupropion], in series [2], the “increase of DG neurogenesis” value is on record as “about 49%”. With `CNCCC=C1c2ccccc2CCc2ccccc21` [nortriptyline, nortrypline], the “increase of DG neurogenesis” value in series [2] is “did not affect the magnitude of neurogenesis”.
